Data from ChEMBL document CHEMBL1201862, “PubChem BioAssay data set” (2004).
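Growth conditions: 96-well plates. Treatment: test compound, 48 hours, 5 concentrations. Analysis: linear interpolation between bracketing concentrations; unreached endpoints set to highest concentration. GI50: concentration for 50% inhibition of growth.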 Active and inactive are the calls of the source. Cut-off read from the data, not from the text of the source: active = GI50 up to about 1.1 µM and inactive = higher.

Columns and labels:
Assay in all cases: NCI-60 cell line screen, 48 h
DLD-1 = test system: DLD-1
DMS-114 = test system: DMS-114
DMS-273 = test system: DMS-273
HOP-18 = test system: HOP-18
M19-MEL = test system: M19-MEL
RXF 631 = test system: RXF 631
KM-20L2 = test system: KM-20L2
SNB-78 = test system: SNB-78
XF498 = test system: XF498

Structure (SMILES)	GI50 (DLD-1)	GI50 (DMS-114)	GI50 (DMS-273)	GI50 (HOP-18)	GI50 (M19-MEL)	GI50 (RXF 631)	GI50 (KM-20L2)	GI50 (SNB-78)	GI50 (XF498)
CCOC(=O)C12CC1(C(=O)OCC)C1CCC2C1 (configuration not stated)	> 100 µM (inactive)	74.3 µM (inactive)	> 100 µM (inactive)	> 100 µM (inactive)	> 100 µM (inactive)	> 100 µM (inactive)	–	–	–
Nc1cc2c(cc1[N+](=O)[O-])[nH]c1c(-c3ccccc3)nccc12	8.2 µM (inactive)	12.7 µM (inactive)	18.1 µM (inactive)	8.41 µM (inactive)	17.7 µM (inactive)	–	23.6 µM (inactive)	11.2 µM (inactive)	40 µM (inactive)
O=NN(CCCl)C(=O)NC1CCC(CC2CCC(NC(=O)N(CCCl)N=O)CC2)CC1 (configuration not stated)	23.6 µM (inactive)	24.4 µM (inactive)	21.9 µM (inactive)	> 38 µM (inactive)	2.7 µM (inactive)	41.7 µM (inactive)	> 74.1 µM (inactive)	29.5 µM (inactive)	13 µM (inactive)
COC(=O)C1=C(C)N(NC(=O)c2ccccc2)C2(O)CCCC(=O)C12C (configuration not stated)	> 100 µM (inactive)	> 100 µM (inactive)	> 100 µM (inactive)	< 0.01 µM (active)	–	> 100 µM (inactive)	> 100 µM (inactive)	> 100 µM (inactive)	> 100 µM (inactive)
COc1nc2[nH]ccc2c(=O)n1C	> 100 µM (inactive)	> 100 µM (inactive)	> 100 µM (inactive)	> 100 µM (inactive)	–	> 100 µM (inactive)	–	> 100 µM (inactive)	> 100 µM (inactive)
Cc1cc(O)nc(NN2C(Cl)C(=O)C2c2cccc(O)c2)n1 (configuration not stated)	–	5.11 µM (inactive)	3.13 µM (inactive)	2.39 µM (inactive)	6.19 µM (inactive)	–	10.3 µM (inactive)	7.43 µM (inactive)	–
CC(C)c1ccc(O)c(=O)cc1 [GAMMA-THUJAPLICIN]	5.56 µM (inactive)	2.92 µM (inactive)	3.89 µM (inactive)	5.62 µM (inactive)	6.46 µM (inactive)	–	3.99 µM (inactive)	20 µM (inactive)	15.1 µM (inactive)
COc1ccc(/C(=N\NC(=O)NN)C(c2ccc(OC)cc2)C2(O)C(=O)Nc3c(Cl)cc(Cl)cc32)cc1 (configuration not stated)	> 100 µM (inactive)	90.8 µM (inactive)	–	> 100 µM (inactive)	> 100 µM (inactive)	> 100 µM (inactive)	> 100 µM (inactive)	> 100 µM (inactive)	> 100 µM (inactive)
CO/C1=C\C(C)=C\C(C)C(O)C(C)C/C(C)=C/C=C/C(OC)C(C(C)C(O)C(C)C2(O)CC(O)C(C)C(C(C)C)O2)OC1=O (configuration not stated)	7.05e-05 µM (active)	0.00458 µM (active)	0.000261 µM (active)	10.1 µM (inactive)	0.00374 µM (active)	–	1.12e-05 µM (active)	10.2 µM (inactive)	0.0242 µM (active)
CCOC(=O)/C(=C/c1ccccn1)C(=O)c1ccccc1	10.4 µM (inactive)	14.3 µM (inactive)	12.1 µM (inactive)	18.3 µM (inactive)	13.5 µM (inactive)	13.6 µM (inactive)	15.5 µM (inactive)	17 µM (inactive)	16.1 µM (inactive)
